# Source: article PMC5540273, “Progress towards a public chemogenomic set for protein kinases and a call for contributions” (PLoS ONE, 2017)
# Biological target: BTK (Homo sapiens, UniProt Q06187)
# Assay: KINOMEscan competition binding
# Details: read-out: %Inh BTK
# Chain of BTK (Q06187 whole entry): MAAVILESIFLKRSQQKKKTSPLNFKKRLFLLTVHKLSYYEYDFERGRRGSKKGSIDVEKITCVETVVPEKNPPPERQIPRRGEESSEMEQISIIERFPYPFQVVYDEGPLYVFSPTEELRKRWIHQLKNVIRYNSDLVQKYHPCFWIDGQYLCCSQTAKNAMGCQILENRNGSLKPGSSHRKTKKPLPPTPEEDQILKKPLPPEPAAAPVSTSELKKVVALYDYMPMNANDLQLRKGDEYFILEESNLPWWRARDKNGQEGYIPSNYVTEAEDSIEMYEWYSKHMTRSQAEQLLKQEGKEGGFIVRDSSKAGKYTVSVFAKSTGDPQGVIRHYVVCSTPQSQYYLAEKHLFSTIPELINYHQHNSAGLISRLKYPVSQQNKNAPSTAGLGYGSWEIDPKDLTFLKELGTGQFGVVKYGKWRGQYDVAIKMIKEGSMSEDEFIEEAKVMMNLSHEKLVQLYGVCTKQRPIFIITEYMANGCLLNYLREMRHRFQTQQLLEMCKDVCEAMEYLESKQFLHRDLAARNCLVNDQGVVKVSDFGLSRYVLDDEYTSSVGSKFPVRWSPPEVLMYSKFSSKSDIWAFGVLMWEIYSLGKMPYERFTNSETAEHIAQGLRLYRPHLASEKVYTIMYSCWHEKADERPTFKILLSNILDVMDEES
row,SMILES,inhibition at 1 µM [%]
1,O=c1cc(N2CCOCC2)nc2n(Cc3cccc(Cl)c3Cl)c(C3CC3)nn12 [UNC10225469A],0
2,Cn1cc(-c2cnc(N)c3c(-c4ccc5c(c4)CCN5C(=O)Cc4ccccc4)csc23)cn1 [UNC10225012A],0
3,CS(=O)(=O)Cc1ccc(Nc2nccc(-c3c(-c4cccc(NC(=O)C5CCCCC5)c4)nn4ncccc34)n2)cc1 [UNC10225159A],0
4,COc1cccc(OC)c1C(=O)Nc1cccc(-c2nn3ccccc3c2-c2ccnc(Nc3cccc(F)c3)n2)c1 [UNC10225310A],0
5,Cc1ccc(NC(=O)Nc2cccc(C(F)(F)F)c2)cc1 [UNC10225187A],0

# Biological target: T1, HASPIN (Homo sapiens, UniProt Q8TF76)
# T1 sequence (Q8TF76 1-798): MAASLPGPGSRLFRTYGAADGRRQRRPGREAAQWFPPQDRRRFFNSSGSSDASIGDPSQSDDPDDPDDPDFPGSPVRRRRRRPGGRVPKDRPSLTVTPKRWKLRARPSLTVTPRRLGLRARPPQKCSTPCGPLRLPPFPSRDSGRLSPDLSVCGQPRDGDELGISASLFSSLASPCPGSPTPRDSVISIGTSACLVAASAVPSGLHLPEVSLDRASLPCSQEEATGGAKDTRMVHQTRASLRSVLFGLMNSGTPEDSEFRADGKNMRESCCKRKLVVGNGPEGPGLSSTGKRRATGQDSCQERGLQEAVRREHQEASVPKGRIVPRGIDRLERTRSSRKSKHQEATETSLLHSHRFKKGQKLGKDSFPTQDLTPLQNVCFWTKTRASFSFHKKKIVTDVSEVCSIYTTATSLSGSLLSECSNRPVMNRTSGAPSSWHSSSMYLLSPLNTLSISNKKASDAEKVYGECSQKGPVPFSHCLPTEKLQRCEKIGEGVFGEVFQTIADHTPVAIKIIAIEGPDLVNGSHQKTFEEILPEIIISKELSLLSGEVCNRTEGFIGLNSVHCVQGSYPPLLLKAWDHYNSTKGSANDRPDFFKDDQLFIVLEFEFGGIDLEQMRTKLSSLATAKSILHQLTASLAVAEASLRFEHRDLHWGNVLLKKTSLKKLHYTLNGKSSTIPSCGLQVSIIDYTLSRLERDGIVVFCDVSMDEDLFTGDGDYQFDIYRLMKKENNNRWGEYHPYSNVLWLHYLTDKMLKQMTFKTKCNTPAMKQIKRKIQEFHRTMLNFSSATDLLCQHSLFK
# Assay: KINOMEscan competition binding
# Details: read-out: %Inh HASPIN
row,SMILES,inhibition at 1 µM [%]
1,O=c1cc(N2CCOCC2)nc2n(Cc3cccc(Cl)c3Cl)c(C3CC3)nn12 [UNC10225469A],0
2,Cn1cc(-c2cnc(N)c3c(-c4ccc5c(c4)CCN5C(=O)Cc4ccccc4)csc23)cn1 [UNC10225012A],0
3,CS(=O)(=O)Cc1ccc(Nc2nccc(-c3c(-c4cccc(NC(=O)C5CCCCC5)c4)nn4ncccc34)n2)cc1 [UNC10225159A],17
4,COc1cccc(OC)c1C(=O)Nc1cccc(-c2nn3ccccc3c2-c2ccnc(Nc3cccc(F)c3)n2)c1 [UNC10225310A],0
5,Cc1ccc(NC(=O)Nc2cccc(C(F)(F)F)c2)cc1 [UNC10225187A],12

# Biological target: T2, DDR2 (Homo sapiens, UniProt Q16832)
# T2 sequence (Q16832 22-855): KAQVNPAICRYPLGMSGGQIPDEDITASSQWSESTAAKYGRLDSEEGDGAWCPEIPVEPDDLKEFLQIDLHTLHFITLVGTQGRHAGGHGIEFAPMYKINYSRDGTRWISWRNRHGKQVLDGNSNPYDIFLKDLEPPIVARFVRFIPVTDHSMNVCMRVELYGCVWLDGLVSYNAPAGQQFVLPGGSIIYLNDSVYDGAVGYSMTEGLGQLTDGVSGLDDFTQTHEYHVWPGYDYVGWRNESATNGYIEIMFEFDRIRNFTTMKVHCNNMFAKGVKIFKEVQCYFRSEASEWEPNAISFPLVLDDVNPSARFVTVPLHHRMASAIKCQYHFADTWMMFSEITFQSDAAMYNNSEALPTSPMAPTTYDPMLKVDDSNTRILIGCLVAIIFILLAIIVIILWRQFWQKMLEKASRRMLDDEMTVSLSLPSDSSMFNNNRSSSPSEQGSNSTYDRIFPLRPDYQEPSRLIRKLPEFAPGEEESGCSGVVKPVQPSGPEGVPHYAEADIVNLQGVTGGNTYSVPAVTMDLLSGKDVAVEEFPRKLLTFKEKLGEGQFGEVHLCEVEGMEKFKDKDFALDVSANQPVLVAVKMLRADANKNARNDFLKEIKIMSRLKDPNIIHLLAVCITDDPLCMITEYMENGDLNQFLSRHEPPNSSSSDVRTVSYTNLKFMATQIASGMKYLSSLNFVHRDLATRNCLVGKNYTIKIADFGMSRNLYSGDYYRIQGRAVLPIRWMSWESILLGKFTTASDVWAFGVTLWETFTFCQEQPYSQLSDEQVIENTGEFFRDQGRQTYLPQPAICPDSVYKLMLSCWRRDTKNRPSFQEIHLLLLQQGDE
# Assay: KINOMEscan competition binding
# Details: read-out: %Inh DDR2
row,SMILES,inhibition at 1 µM [%]
1,O=c1cc(N2CCOCC2)nc2n(Cc3cccc(Cl)c3Cl)c(C3CC3)nn12 [UNC10225469A],0
2,Cn1cc(-c2cnc(N)c3c(-c4ccc5c(c4)CCN5C(=O)Cc4ccccc4)csc23)cn1 [UNC10225012A],24
3,CS(=O)(=O)Cc1ccc(Nc2nccc(-c3c(-c4cccc(NC(=O)C5CCCCC5)c4)nn4ncccc34)n2)cc1 [UNC10225159A],54
4,COc1cccc(OC)c1C(=O)Nc1cccc(-c2nn3ccccc3c2-c2ccnc(Nc3cccc(F)c3)n2)c1 [UNC10225310A],57
5,Cc1ccc(NC(=O)Nc2cccc(C(F)(F)F)c2)cc1 [UNC10225187A],65

# Biological target: AMPK-alpha1 (Homo sapiens, UniProt Q13131)
# Assay: KINOMEscan competition binding
# Details: read-out: %Inh AMPK-alpha1
# Chain of AMPK-alpha1 (Q13131 whole entry): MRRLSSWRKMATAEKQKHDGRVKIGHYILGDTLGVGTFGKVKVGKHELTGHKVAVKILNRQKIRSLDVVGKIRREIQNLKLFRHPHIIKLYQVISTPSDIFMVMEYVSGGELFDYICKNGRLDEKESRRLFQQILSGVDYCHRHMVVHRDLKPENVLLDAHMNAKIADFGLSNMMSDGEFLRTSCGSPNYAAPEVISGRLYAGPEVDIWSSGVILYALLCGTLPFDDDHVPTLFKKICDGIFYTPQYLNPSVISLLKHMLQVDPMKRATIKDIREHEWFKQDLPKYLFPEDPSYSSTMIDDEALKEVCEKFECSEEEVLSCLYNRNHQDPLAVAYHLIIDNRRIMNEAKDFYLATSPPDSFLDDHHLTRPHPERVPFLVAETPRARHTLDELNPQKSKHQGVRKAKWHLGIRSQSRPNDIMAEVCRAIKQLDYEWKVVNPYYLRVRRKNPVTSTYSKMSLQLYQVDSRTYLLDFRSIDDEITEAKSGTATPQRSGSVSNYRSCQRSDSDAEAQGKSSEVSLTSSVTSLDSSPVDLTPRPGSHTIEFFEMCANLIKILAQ
row,SMILES,inhibition at 1 µM [%]
1,O=c1cc(N2CCOCC2)nc2n(Cc3cccc(Cl)c3Cl)c(C3CC3)nn12 [UNC10225469A],5
2,Cn1cc(-c2cnc(N)c3c(-c4ccc5c(c4)CCN5C(=O)Cc4ccccc4)csc23)cn1 [UNC10225012A],17
3,CS(=O)(=O)Cc1ccc(Nc2nccc(-c3c(-c4cccc(NC(=O)C5CCCCC5)c4)nn4ncccc34)n2)cc1 [UNC10225159A],2
4,COc1cccc(OC)c1C(=O)Nc1cccc(-c2nn3ccccc3c2-c2ccnc(Nc3cccc(F)c3)n2)c1 [UNC10225310A],25
5,Cc1ccc(NC(=O)Nc2cccc(C(F)(F)F)c2)cc1 [UNC10225187A],0

# Biological target: T3, CHEK1 (Homo sapiens, UniProt O14757)
# T3 sequence (O14757 1-476): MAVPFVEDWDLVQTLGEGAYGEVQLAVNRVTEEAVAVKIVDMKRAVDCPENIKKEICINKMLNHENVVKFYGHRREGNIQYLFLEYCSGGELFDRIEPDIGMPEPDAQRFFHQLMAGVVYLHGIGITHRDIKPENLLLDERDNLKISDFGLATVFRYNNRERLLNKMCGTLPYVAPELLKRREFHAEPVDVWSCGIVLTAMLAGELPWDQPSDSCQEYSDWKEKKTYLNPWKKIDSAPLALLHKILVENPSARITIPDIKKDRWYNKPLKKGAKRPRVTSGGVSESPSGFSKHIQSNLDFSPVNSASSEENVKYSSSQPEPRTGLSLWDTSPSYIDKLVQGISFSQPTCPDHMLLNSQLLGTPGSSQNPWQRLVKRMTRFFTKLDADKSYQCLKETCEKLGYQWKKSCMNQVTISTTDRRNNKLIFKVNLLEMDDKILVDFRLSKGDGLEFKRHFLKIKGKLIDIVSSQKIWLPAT
# Assay: KINOMEscan competition binding
# Details: read-out: %Inh CHEK1
row,SMILES,inhibition at 1 µM [%]
1,O=c1cc(N2CCOCC2)nc2n(Cc3cccc(Cl)c3Cl)c(C3CC3)nn12 [UNC10225469A],15
2,Cn1cc(-c2cnc(N)c3c(-c4ccc5c(c4)CCN5C(=O)Cc4ccccc4)csc23)cn1 [UNC10225012A],9
3,CS(=O)(=O)Cc1ccc(Nc2nccc(-c3c(-c4cccc(NC(=O)C5CCCCC5)c4)nn4ncccc34)n2)cc1 [UNC10225159A],12
4,COc1cccc(OC)c1C(=O)Nc1cccc(-c2nn3ccccc3c2-c2ccnc(Nc3cccc(F)c3)n2)c1 [UNC10225310A],13
5,Cc1ccc(NC(=O)Nc2cccc(C(F)(F)F)c2)cc1 [UNC10225187A],5

# Biological target: CDKL1 (Homo sapiens, UniProt Q00532)
# Assay: KINOMEscan competition binding
# Details: read-out: %Inh CDKL1
# Chain of CDKL1 (Q00532 whole entry): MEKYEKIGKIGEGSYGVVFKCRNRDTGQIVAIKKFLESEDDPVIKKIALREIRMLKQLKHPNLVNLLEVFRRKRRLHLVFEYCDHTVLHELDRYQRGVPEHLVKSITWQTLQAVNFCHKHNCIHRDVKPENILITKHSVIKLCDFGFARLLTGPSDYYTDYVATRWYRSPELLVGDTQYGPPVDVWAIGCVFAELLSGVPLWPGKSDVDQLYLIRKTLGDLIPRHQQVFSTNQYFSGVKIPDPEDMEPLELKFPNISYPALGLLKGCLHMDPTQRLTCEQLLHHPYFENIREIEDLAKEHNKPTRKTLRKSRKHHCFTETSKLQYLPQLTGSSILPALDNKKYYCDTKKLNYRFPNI
row,SMILES,inhibition at 1 µM [%]
1,O=c1cc(N2CCOCC2)nc2n(Cc3cccc(Cl)c3Cl)c(C3CC3)nn12 [UNC10225469A],20
2,Cn1cc(-c2cnc(N)c3c(-c4ccc5c(c4)CCN5C(=O)Cc4ccccc4)csc23)cn1 [UNC10225012A],9
3,CS(=O)(=O)Cc1ccc(Nc2nccc(-c3c(-c4cccc(NC(=O)C5CCCCC5)c4)nn4ncccc34)n2)cc1 [UNC10225159A],0
4,COc1cccc(OC)c1C(=O)Nc1cccc(-c2nn3ccccc3c2-c2ccnc(Nc3cccc(F)c3)n2)c1 [UNC10225310A],15
5,Cc1ccc(NC(=O)Nc2cccc(C(F)(F)F)c2)cc1 [UNC10225187A],14
